Experimental data as given in patent publication US7723091B2 (priority 1999, dated 2010).
Values joined by “and” are separate entries in the source; they are usually repeats but may differ in a detail not shown here. Equal values may be shown once. Read-outs that look alike come from different tables or passages of the source. Marks after values point to notes of the source that are not given here.

Experiments:
[1] = tested on: E. acervulina, E. maxima and Clostridium perfringens; format: in vivo, broiler chickens; details: infected
[2] = tested on: E. acervulina, E. maxima, and C. perfringens; format: in vivo, broiler chickens; details: Trial III; infected; no PI-PLC (T4 mannanase 100 MU/ton; T9 salinomycin 60 g/ton+BMD 50 g/ton)
[3] = tested on: Eimeria acervulina sporozoites; assay: In vitro invasion of BHK cells by Eimeria acervulina sporozoites; format: cell-based; details: B. cereus PI-PLC 0.0403 U/mL, recombinant 0.261 U/mL
Method: (§1) Eineria acervulina sporozoites or Eimeria tenella sporozoites and cultured baby hamster kidney (BHK) cells were prepared by published methods. See Augustine, Avian and Poultry Biology Reviews 1:113-122, 2000. For cell pretreatment, cell cultures were overlaid with dilutions of enzymes as described in Table 11, and examined for morphological changes from 5 to 45 min post overlay. After 45 minutes, the monolayer cultures were washed twice, then inoculated with untreated E. acervulina or E. tenella sporozoites. For application during infection, sporozoites were suspended in the appropriate dilution of the enzyme and inoculated immediately into the cell cultures. After 45 minutes incubation, cultures were fixed, stained, and the invasion was quantified.
(§2) Observations were made looking for changes in gross morphology of sporozoites or cells due to enzyme treatment. At the enzyme levels used in these experiments, no morphological change was noted. The sporozoite invasion of the cultured cells was measured after the two methods of enzyme treatment, as well as without enzyme treatment, by histological staining and microscopy procedures. See Augustine, supra.

[4] = tested on: Eimeria tenella sporozoites; assay: In vitro invasion of BHK cells by Eimeria tenella sporozoites; format: cell-based; details: B. cereus PI-PLC 0.0403 U/mL, recombinant 0.261 U/mL
Method: as §1, §2

E. coli MG1655 = assay: Cylinder plate assay for antibiotic activity; format: cell-based; details: E. coli MG1655 testing strain
Method: Fermentation with Bacillus cereus (ATCC 7004) was conducted according to the method described in EXAMPLE 2 except that the initial volume was increased to 20 liters. A test for the presence of antibiotic was conducted with E. coli MG1655 as the testing strain with final fermentation broth or partially purified PI-PLC prepared according to the method described in EXAMPLES 3-5. The test was conducted as a.cylinder plate assay. See Brantner, Pharmazie 52(1):34-40, 1997.

[5] = tested on: Eimeria acervulina and Clostridium perfringens; format: in vivo, broiler chickens; details: Trial I
[6] = tested on: E. acervulina and Clostridium perfringens; format: in vivo, broiler chickens
[7] = Trial IV, PI-PLC 30 U/lb, Man. 121 MU/ton, BMD 50 g/ton, salinomycin 60 g/ton
[8] = Trial IV Test 13, Man. 5x at 506 MU/ton
[9] = Cell Pretreatment with Enzyme Followed by Wash, Test 1, mannanase 5100 U/mL
[10] = Cell Pretreatment with Enzyme Followed by Wash, Test 2, mannanase 5100 U/mL
[11] = mean of 4 replicates, infected, PI-PLC 0.34 g/ton pure basis (T3, T4) or Sacox 60 g/ton + BMD-50 50 g/ton (T2) in feed
[12] = single replicate (cage) values, infected, PI-PLC 0.34 g/ton pure basis (T3, T4) or Sacox 60 g/ton + BMD-50 50 g/ton (T2) in feed
[13] = Trial II T4 (Rec), T7 (Wt), infected, 10 U/lb
[14] = Application of Enzyme During Infection, Test 2, listed as PI-PLC from B. cereus
[15] = Cell Pretreatment with Enzyme Followed by Wash, Test 1, mannanase 5100 U/mL, listed as PI-PLC from B. cereus
[16] = Cell Pretreatment with Enzyme Followed by Wash, Test 2, mannanase 5100 U/mL, listed as PI-PLC from B. cereus

## Bacitracin methylene disalicylate [reference compound]
[1]; [7]
  Feed Conversion Day 0-21: 1.707
  Feed Conversion Day 8-21: 1.770
  Lesion Score E. acer. Upper: 2.25
  Lesion Score E. max. Middle: 1.94
  Live Weight Day 21: 0.490
  Weight Gain Day 0-21: 0.453
  Weight Gain Day 8-21: 0.352

## endo-1,4- -D-mannanase [β-mannanase]
[2]
  Feed Consumption Day 0-21: 10.787^abc
  Feed Consumption Day 8-21: 8.435^abc
  Feed Conversion Day 0-21: 1.501^cd
  Feed Conversion Day 8-21: 1.536^c
  Lesion Scores E. acer.: 1.16^ab
  Lesion Scores E. max.: 1.44^ab
  Live Wt. Day 21: 0.652^bc
  Weight AF/G Treatment (weight adjusted feed conversion): 1.465
  Weight Gain Day 0-21: 0.611^bc
  Weight Gain Day 8-21: 0.490^b
[1]; [8]
  Feed Conversion Day 0-21: 1.740
  Feed Conversion Day 8-21: 1.813
  Lesion Score E. acer. Upper: 2.13
  Lesion Score E. max. Middle: 2.00
  Live Weight Day 21: 0.471
  Weight Gain Day 0-21: 0.437
  Weight Gain Day 8-21: 0.339
[1]; [7]
  Feed Conversion Day 0-21: 1.803
  Feed Conversion Day 8-21: 1.849
  Lesion Score E. acer. Upper: 1.94
  Lesion Score E. max. Middle: 1.34
  Live Weight Day 21: 0.483
  Weight Gain Day 0-21: 0.433
  Weight Gain Day 8-21: 0.338
[3]; [9]
  Invasion counts (mean ± standard error of the mean): 16 ± 1^b
[3]; [10]
  Invasion counts (mean ± standard error of the mean): 29 ± 2^ab
[4]; Application of Enzyme During Infection, Test 1, mannanase 5100 U/mL
  Invasion counts (mean ± standard error of the mean): 46 ± 6^ab
[4]; [9]
  Invasion counts (mean ± standard error of the mean): 35 ± 1^b
[4]; [10]
  Invasion counts (mean ± standard error of the mean): 19 ± 5^a

## phosphatidylinositol specific phospholipase C [Wild type PI-PLC]
E. coli MG1655
  clearing zone indicating antibiotic activity: No clearing zone
[5]; by all criteria (Tables 4-5)
  performance compared with the Salinomycin+BMD treatment: worked as well as or better than the Salinomycin+BMD treatment
[5]; [11]
  Average Body Weight at 21 Days, Mean: 378.71 g and 373.14 g
  Average Feed Conversion (0-21 days) Corrected for Weight of Mortality Birds, Mean: 1.425 and 1.419
[5]; [12]
  Average Body Weight at 21 Days: 377.83 g and 366.67 g and 383.83 g and 361.17 g and 378.83 g and 361.33 g and 374.33 g and 403.40 g
  Average Feed Conversion (0-21 days) Corrected for Weight of Mortality Birds: 1.438 and 1.404 and 1.407 and 1.445 and 1.423 and 1.421 and 1.432 and 1.406
[6]; [13]
  8-21 Day Feed Conversion (Corrected): 1.876
  8-21 Day Weight Gain: 298.98
  Average Intestinal Lesion Score: 1.267
[6]; Trial II, same concentration (10 U/lb)
  effectiveness compared with recombinant counterpart: did not work as effectively as its recombinant counterpart
[3]; Application of Enzyme During Infection, Test 1, listed as PI-PLC from B. cereus
  Invasion counts (mean ± standard error of the mean): 33 ± 3^b
[3]; [14]
  Invasion counts (mean ± standard error of the mean): 25 ± 2^ab
[3]; [15]
  Invasion counts (mean ± standard error of the mean): 15 ± 1^b
[3]; [16]
  Invasion counts (mean ± standard error of the mean): 26 ± 1^ab
[4]; Application of Enzyme During Infection, Test 1, mannanase 5100 U/mL, listed as PI-PLC from B. cereus
  Invasion counts (mean ± standard error of the mean): 52 ± 13^ab
[4]; [14]
  Invasion counts (mean ± standard error of the mean): 37 ± 2^ab
[4]; [15]
  Invasion counts (mean ± standard error of the mean): 38 ± 2^b
[4]; [16]
  Invasion counts (mean ± standard error of the mean): 21 ± 2^a

## CC[C@@H](C(=O)[C@@H](C)[C@@H](O)[C@H](C)[C@@H]1O[C@@H]([C@@H](CC)C(=O)O)CC[C@@H]1C)[C@H]1O[C@]2(C=C[C@@H](O)[C@]3(CC[C@@](C)([C@H]4CC[C@](O)(CC)[C@H](C)O4)O3)O2)[C@H](C)C[C@@H]1C [S, Salinomycin, reference compound]
[1]; [7]
  Feed Conversion Day 0-21: 1.709
  Feed Conversion Day 8-21: 1.719
  Lesion Score E. acer. Upper: 1.00
  Lesion Score E. max. Middle: 1.09
  Live Weight Day 21: 0.496
  Weight Gain Day 0-21: 0.458
  Weight Gain Day 8-21: 0.368
